This assay concerns mouse model of cuprizone demylelination. In words: Remyelination in gray matter (hippocampus) via quantification of PLP, cuprizone/rapamycin mouse model. It is filed as in vivo, C57BL/6 mice. The settings on record: 6 weeks treatment after 12 weeks cuprizone co-administered with rapamycin, RCI 10 U/kg. The method, then: The hypothesis that repository corticotropin injection (RCI) accelerates remyelination in a mouse model of cuprizone demylelination was tested. C57BL/6 mice were fed 0.3% cuprizone co-administered with rapamycin for 12 weeks to induce demyelination and inhibit spontaneous remyelination. […] Mice were treated for another 6 weeks with RCI, triiodothyronine (T3, positive control), or vehicle (negative control). Remyelination was assayed in gray matter (hippocampus) via quantification of myelin proteolipid protein (PLP) and in white matter (corpus callosum) via p-Phenylenediamine (PPD) staining. […] Of note-increased remyelination was not observed at higher doses of RCI in this rodent model (data not shown).

One compound from patent publication US20260014235A1, “METHODS OF PROMOTING REMYELINATION” (Mallinckrodt Pharmaceuticals Ireland Limited, priority 2019, published 2026) can be followed below.

Marks after values point to notes of the source that are not given here.

As to `N[C@@H](Cc1cc(I)c(Oc2ccc(O)c(I)c2)c(I)c1)C(=O)O` [Positive Control, triiodothyronine], the “Mean PLP (% Area Covered)” value is 40.8** % Area Covered.
